Assays:
pigs for meat supply [1] = assay: Carcass quality of pigs fed supplemented food (body fat and lean efficiency estimated in vivo with Piglot 105); set-up: species or system York-Landrace (YL) x Duroc (DC); conditions: for Average fat / LEAN EFFICIENCY: at approx. 100 kg, mean and standard deviation
Source text: (§1) 30 pigs were used, 15 castrated males and 15 females obtained from a terminal breeding York-Landrace (YL)×Duroc (DC); at the beginning of the study, said pigs weighted 77.83±1.20 Kg and were approximately 18 weeks old. Pigs were kept in individual pens, and were randomly distributed to 3 treatments, with ten repetitions per treatment. Treatments were: a positive control, including 5 ppm of commercial ractopamine; a second treatment including 12 ppm of pure ferulic acid and a third treatment containing 15 ppm of substantially pure ferulic acid per ton of food. Pigs were weighted every seven days, studying the following variables: initial weight, weekly weight, and final weight of the pigs; daily food intake. This was used to estimate the daily, weekly and term weight gain, as well as food efficiency. When reaching the approximate weight of 100 kg, animals were evaluated in vivo (using Piglot 105, SFK-Technology, Netherlands) in order to estimate the amount of body fat and lean efficiency. Results were evaluated randomly, using SAS general linear models procedures.

pigs for meat supply [2] = assay: Production characteristics of finishing pigs fed supplemented food (weight, weight gain, food intake, food conversion); type: in vivo, York-Landrace (YL) x Duroc (DC); conditions: for DAILY GAIN / WEIGHT GAIN / FINAL WEIGHT / AVERAGE INTAKE / TOTAL INTAKE: mean and standard deviation; for AVERAGE INTAKE: daily average food intake; for CONVERSION: food conversion; for TOTAL INTAKE: food intake
Source text: as §1

pigs for meat supply [3] = assay: as above; type: in vivo, York-Landrace (YL) x Duroc (DC); conditions: supplemented pigs vs untreated control group

COc1cc(/C=C/C(=O)O)ccc1O [Pure ferulic acid, trans-4-hydroxy-3-methoxy cinnamic acid]
CARCASS EFFICIENCY (pigs for meat supply [1]; 12 ppm in food): 88.01%
EFFICIENCY IN CUTS (pigs for meat supply [1]; 12 ppm in food): 49.66%
Average fat (pigs for meat supply [1]; 12 ppm in food): 13.5 ± 3.58 mm
LEAN EFFICIENCY (pigs for meat supply [1]; 12 ppm in food): 56.24 ± 3.58%
DAILY GAIN (pigs for meat supply [2]; 12 ppm in food): 0.873 ± .20 kg
WEIGHT GAIN (pigs for meat supply [2]; 12 ppm in food): 24.45 ± 5.64 kg
FINAL WEIGHT (pigs for meat supply [2]; 12 ppm pure ferulic acid in food, start 79.4 Kg): 103.85 ± 7.63 kg
AVERAGE INTAKE (pigs for meat supply [2]; 12 ppm in food): 2.34 ± .40 kg
CONVERSION (pigs for meat supply [2]; 12 ppm in food): 2.68
TOTAL INTAKE (pigs for meat supply [2]; 12 ppm in food): 81.75 ± 14.00 kg

CC(CCc1ccc(O)cc1)NCC(O)c1ccc(O)cc1 (stereo not shown) [Ractopamine, ractopamine, reference compound]
intake of total food and daily average compared to the control group (untreated) (pigs for meat supply [3]): lower intake
CARCASS EFFICIENCY (pigs for meat supply [1]; 5 ppm in food): 87.08%
EFFICIENCY IN CUTS (pigs for meat supply [1]; 5 ppm in food): 51.69%
Average fat (pigs for meat supply [1]; 5 ppm in food): 9.67 ± 1.11 mm
LEAN EFFICIENCY (pigs for meat supply [1]; 5 ppm in food): 58.98 ± 2.20%
FINAL WEIGHT (pigs for meat supply [2]; 5 ppm commercial ractopamine in food, start 77.33 Kg): 105.28 ± 4.98 kg
DAILY GAIN (pigs for meat supply [2]; 5 ppm in food): 1.00 ± .08 kg
WEIGHT GAIN (pigs for meat supply [2]; 5 ppm in food): 27.94 ± 3.20 kg
AVERAGE INTAKE (pigs for meat supply [2]; 5 ppm in food): 2.35 ± .33 kg
CONVERSION (pigs for meat supply [2]; 5 ppm in food): 2.32
TOTAL INTAKE (pigs for meat supply [2]; 5 ppm in food): 82.33 ± 11.31 kg

COc1cc(/C=C/C(=O)O)ccc1O [Substantially pure ferulic acid, trans-ferulic acid]
CARCASS EFFICIENCY (pigs for meat supply [1]; 15 ppm in food): 89.26%
EFFICIENCY IN CUTS (pigs for meat supply [1]; 15 ppm in food): 50.88%
Average fat (pigs for meat supply [1]; 15 ppm in food): 9.60 ± .34 mm
LEAN EFFICIENCY (pigs for meat supply [1]; 15 ppm in food): 59.66 ± 3.14%
DAILY GAIN (pigs for meat supply [2]; 15 ppm in food): 1.04 ± .20 kg
WEIGHT GAIN (pigs for meat supply [2]; 15 ppm in food): 29.25 ± 5.70 kg
FINAL WEIGHT (pigs for meat supply [2]; 15 ppm substantially pure ferulic acid in food, start 78.2 Kg): 107.47 ± 6.84 kg
AVERAGE INTAKE (pigs for meat supply [2]; 15 ppm in food): 2.30 ± .26 kg
CONVERSION (pigs for meat supply [2]; 15 ppm in food): 2.21
TOTAL INTAKE (pigs for meat supply [2]; 15 ppm in food): 80.57 ± 8.13 kg

COc1cc(/C=C/C(=O)O)ccc1O [ferulic acid]
intake of total food and daily average compared to the control group (untreated) (pigs for meat supply [3]): lower intake
amount of dorsal fat (in words) (pigs for meat supply [1]; pigs fed with 15 ppm): lower amount of dorsal fat
lean efficiency (in words) (pigs for meat supply [1]; pigs fed with 15 ppm): better lean efficiency

Reference: US20110046224A1, “METHODS TO ACCELERATE MUSCLE DEVELOPMENT, DECREASE FAT DEPOSITS, AND ENHANCE FEEDING EFFICIENCY IN PIGS” (BIOKAB, S.A. de C.V., priority 2009, published 2011)
